# Measurements from US9725432B2, “Pyrimidine derivatives for the treatment of bacterial diseases” (JANSSEN R&D IRELAND, priority 2012, dated 2017).
# Experiments:
# [1] = system: Staphylococcus aureus; experiment: MIC determination of compounds on ECO/PAE/STA in microplates; assay type: cell-based; conditions: lowest concentration with no growth (90% inhibition of growth), 18-20 hours at 37° C., visual, strain not given
# [2] = system: Staphylococcus aureus; experiment: Antibacterial susceptibility testing: IC90 determination (broth microdilution, resazurin fluorescence); assay type: cell-based; conditions: 90% inhibitory concentration for bacterial growth, Mueller Hinton broth, 35° C., 16-20 hours, strain not given
# Procedure: Preparation of Bacterial Suspensions for Susceptibility Testing
# The following bacteria were used: Staphylococcus aureus ATCC 29213, methicillin-resistant Staphylococcus aureus (MRSA) ATCC 700788 and Escherichia coli ATCC 35218. The bacteria used in this study were grown overnight in flasks containing 100 ml Mueller-Hinton broth (Difco cat. nr. 0757-17) in sterile de-ionized water, with shaking, at 37° C. Stocks were store at −70° C. until use.
# Bacteria were incubated on a tryptic soy agar plate containing 5% sheep blood (Becton Dickinson cat. nr. 254053) for 18-24 hours at 35° C. in aerobic conditions (first passage). For the second passage, fresh Mueller-Hinton broth is inoculated with 5-10 colonies and grown overnight at 35° C. until turbidity (reaching log-phase) in aerobic conditions is reached. The bacterial suspension is then adjusted to 0.5 McFarland density and further diluted 1:100 in Mueller Hinton broth medium. This is used as inoculum.
# Antibacterial Susceptibility Testing: IC90 Determination
# MIC assays were performed by the broth microdilution method in a 96-well format (flat-bottom microtitre plates) with a final volume of 0.1 ml Mueller Hinton broth containing two-fold serial dilutions of compounds and inoculated with 5×10^5 CFU/ml of bacteria (standard inoculum size according to CLSI guidelines). Inhibitors are typically varied over the range of 63 to 0.49 μM. The final DMSO concentration in the assay was 1.25% (maximum tolerable DMSO concentration=6%). In the assays where the effect of human serum on the activity of the compounds against S. aureus was tested, human serum was added at a final concentration of 10%. The plates were incubated at 35° C. for 16-20 hours. At the end of incubation the bacterial growth was quantified fluorometrically. For this, resazurin was added to all wells and the plates were re-incubated. The incubation time is dependent on the type of bacteria. A change in color from blue to pink indicated the growth of bacteria. The fluorescence was read in computer-controlled fluorometer (Fluoroskan Ascent FL, Labsystems) at an excitation wavelength 540 nm and an emission wavelength of 590 nm. The % growth inhibition achieved by the compounds was calculated according to standard methods. The IC90 (expressed in μg/ml) was defined as the 90% inhibitory concentration for bacterial growth. A panel of reference compounds were simultaneously tested for QC approval.
# [3] = Cytotoxicity MTT assay; assay type: cell-based; conditions: human, HelaM cells, concentration that causes 50% reduction in cell viability
# Procedure: Cytotoxicity of the compounds was evaluated using the MTT assay. Human HelaM cells grown in 96-well plates were exposed to serial dilutions of the tested compounds (final volume of 0.2 ml) and incubated for 72 hours at 37° C. and 5% CO2 Inhibitors are typically varied over the range of 25 to 0.8 μM. The final DMSO concentration in the assay is 0.5%. MTT (3-(4,5-Dimethylthiazol-2-yl)-2,5-diphenyltetrazolium bromide, a tetrazole) was added and reduced to purple formazan only in living cells. Solubilization of the formazan crystals was achieved by adding 100 μl 2-propanol. Cell viability was determined by measuring the absorbance of the reduced formazan, giving a purple color, at 540 nm and 690 nm. The absorbance measured at 690 nm was automatically subtracted from the absorbance at 540 nm, to eliminate the effects of non-specific absorption. The percent cytotoxicity achieved by the compounds was calculated according to standard methods. Cytotoxicity is reported as CC50, the concentration that causes a 50% reduction in cell viability.
SMILES,MIC90 [1],melting point,IC90 [2],CC50 at 72 h [3]
COc1cccc(-c2cnc(-c3ccc(F)cc3)nc2C2CCN(CC(C)(C)C#N)CC2)c1 [Compound 78],0.125 µg/mL,119 °C,,
CC(C)(C#N)CN1CCC(c2nc(-c3cncnc3)ncc2-c2cccc(C#N)c2)CC1 [Compound 82],1 µg/mL,182 °C,,
COc1cccc(-c2cnc(-c3ccc(C#N)cc3)nc2C2CCN(CC(C)(C)C#N)CC2)c1 [Compound 86],0.125 µg/mL,207 °C,,
CC(C)(C)CN1CCN(c2nc(-c3ccncc3)ncc2-c2cccc(C#N)c2)CC1 [Compound 74],0.125 µg/mL,155 to 164 °C,,
CC(C)(C)C(=O)N1CCC(c2nc(-c3ccc(F)cc3)ncc2-c2cccc(C#N)c2)CC1 [Compound 77],0.25 µg/mL,75 to 80 °C,,
COc1ccc(-c2ncc(-c3cccc(C#N)c3)c(C3CCN(CC(C)(C)C#N)CC3)n2)cn1 [Compound 85],0.125 µg/mL,165 °C,,
CC(C)(C#N)CN1CCC(c2nc(-c3ccc(S(C)(=O)=O)cc3)ncc2-c2cccc(C#N)c2)CC1 [Compound 87],2 µg/mL,101 to 122 °C,,
COc1cccc(-c2cnc(-c3ccc(Br)cc3)nc2C2CCN(CC(C)(C)C#N)CC2)c1 [Compound 88],0.125 µg/mL,,,
COc1cccc(-c2cnc(-c3ccc(OC)nc3)nc2C2CCN(CC(F)(F)F)CC2)c1 [Compound 79],0.125 µg/mL,,,
CC(C)(C)S(=O)(=O)N1CCC(c2nc(-c3ccc(F)cc3)ncc2-c2cccc(C#N)c2)CC1 [Compound 89],0.125 µg/mL,,,
C#Cc1ccc(-c2ncc(-c3cccc(OC)c3)c(C3CCN(CC(F)(F)F)CC3)n2)cc1 [Compound 93],0.125 µg/mL,,,
COc1cccc(-c2cnc(-c3ccncc3)nc2C2CCN(CC(C)C)CC2)c1 [Compound 11],,105 to 106 °C,5.49 µg/mL,> 10.1 µg/mL
COc1cccc(-c2cnc(-c3ccncc3)nc2C2CCN(C3CC3)CC2)c1 [Compound 12],,153 to 156 °C,5.78 µg/mL,> 9.7 µg/mL
CC(C)(C)CNCCNc1nc(-c2ccncc2)ncc1-c1cccc(C#N)c1 [Compound 73],> 64 µg/mL,,,
C#Cc1ccc(-c2ncc(-c3cccc(OC)c3)c(C3CCN(CC(C)(C)C#N)CC3)n2)cc1 [Compound 92],0.125 µg/mL,,,
CC(C)(C)CN1CCC(c2nc(-c3ccc(F)cc3)ncc2-c2cccc(C#N)c2)CC1 [Compound 66],,154 to 158 °C,< 0.21 µg/mL,8.8 µg/mL
COc1cccc(-c2cnc(-c3ccncc3)nc2C2CCN(Cc3ccc(F)c(F)c3)CC2)c1 [Compound 43],,158 °C,2.24 µg/mL,6.2 µg/mL
N#Cc1cccc(-c2cnc(-c3ccncc3)nc2C2CCN(CC(F)(F)F)CC2)c1 [Compound 58],,168 to 172 °C,0.69 µg/mL,> 10.6 µg/mL
COc1cccc(-c2cnc(-c3ccncc3)nc2C2CCN(Cc3cccc(Cl)c3)CC2)c1 [Compound 45],,133 °C,3.49 µg/mL,4.9 µg/mL
COc1cccc(-c2cnc(-c3ccncc3)nc2N2CCN(CC(C)(C)C)CC2)c1 [Compound 21],,117 to 120 °C,0.39 µg/mL,5.9 µg/mL
Cc1cccc(-c2cnc(-c3ccncc3)nc2C2CCN(Cc3cccc(F)c3)CC2)c1 [Compound 14],,195 to 196 °C,9.16 µg/mL,> 11 µg/mL
COc1cccc(-c2cnc(-c3ccncc3)nc2C2CCN(Cc3ccc(Cl)cc3)CC2)c1 [Compound 44],,131 °C,2.23 µg/mL,7 µg/mL

SMILES,MIC90 [1],melting point,IC90 [2],CC50 at 72 h [3]
Cc1cccc(-c2cnc(-c3ccncc3)nc2C2CCN(Cc3ccccc3O)CC2)c1 [Compound 8],,149 to 151 °C,5.5 µg/mL,> 4.4 µg/mL
CC(C)(C)CN1CCC(c2nc(C3CC3)ncc2-c2cccc(C#N)c2)CC1 [Compound 63],,125 to 126 °C,2.74 µg/mL,> 9.4 µg/mL
COc1cccc(-c2cnc(-c3ccncc3)nc2C2CCN(Cc3cccc(F)c3)CC2)c1 [Compound 3],,111 to 114 °C,5.59 µg/mL,> 4.5 µg/mL
COc1cccc(-c2cnc(-c3ccncc3)nc2C2CCN(CC(C)(C)C#N)CC2)c1 [Compound 57],,117 °C,0.39 µg/mL,7.3 µg/mL
COc1cccc(-c2cnc(-c3ccncc3)nc2N2CCC(c3ccccc3)CC2)c1 [Compound 26],,157 to 159 °C,7.51 µg/mL,5.7 µg/mL
COc1cccc(-c2cnc(-c3ccncc3)nc2C2CCN(Cc3cccs3)CC2)c1 [Compound 19],,130 °C,5.57 µg/mL,> 11.1 µg/mL
COc1cccc(-c2cnc(-c3ccncc3)nc2C2CCN(Cc3ccccc3C#N)CC2)c1 [Compound 42],,158 °C,6.75 µg/mL,5.1 µg/mL
C#CCN1CCC(c2nc(-c3ccncc3)ncc2-c2cccc(OC)c2)CC1 [Compound 49],,160 °C,12.2 µg/mL,> 9.7 µg/mL
COc1cccc(-c2cnc(-c3ccncc3)nc2C2CCN(C(=O)C(C)(C)C)CC2)c1 [Compound 25],,165 °C,3.27 µg/mL,> 10.8 µg/mL
COc1cccc(-c2cnc(-c3ccc(OC)nc3)nc2C2CCN(CC(C)(C)C#N)CC2)c1 [Compound 81],0.125 µg/mL,,,
COc1cccc(-c2cnc(-c3ccncc3)nc2C2CCN(Cc3ccc(C)cc3)CC2)c1 [Compound 35],,141 °C,13.3 µg/mL,7.7 µg/mL
COc1cccc(-c2cnc(-c3ccncc3)nc2C2CCN(Cc3c(F)cccc3F)CC2)c1 [Compound 47],,184 °C,1.74 µg/mL,2.1 µg/mL
COc1cccc(-c2cnc(-c3ccncc3)nc2N2CCC(NC(=O)C(C)Oc3ccccc3)CC2)c1 (centres unmarked) [Compound 22],,106 to 108 °C,5.16 µg/mL,8.5 µg/mL
COc1cccc(-c2cnc(-c3ccncc3)nc2NC2CCN(CC(C)(C)C)CC2)c1 [Compound 30],,137 to 138 °C,5.19 µg/mL,8.8 µg/mL
COc1cccc(-c2cnc(-c3ccncc3)nc2C2CCN(Cc3ccc(C#N)cc3)CC2)c1 [Compound 34],,168 °C,6.99 µg/mL,8.7 µg/mL
C#Cc1ccc(-c2ncc(-c3cccc(OC)c3)c(C3CCN(CC(C)(C)C)CC3)n2)cc1 [Compound 91],0.5 µg/mL,,,
COc1cccc(-c2cnc(-c3ccc(Br)cc3)nc2C2CCN(CC(C)(C)C)CC2)c1 [Compound 90],0.25 µg/mL,,,
COc1ccc(-c2cnc(-c3ccncc3)nc2C2CCN(CC(C)(C)C)CC2)cc1 [Compound 36],,154 to 156 °C,2.98 µg/mL,> 10.5 µg/mL
CC(C)(C)CN1CCC(c2nc(-c3ccncc3)ncc2-c2cccc(C#N)c2)CC1 [Compound 54],,155 °C,1.29 µg/mL,> 10.3 µg/mL
COc1ccc(-c2ncc(-c3cccc(C#N)c3)c(C3CCN(CC(C)(C)C)CC3)n2)cn1 [Compound 67],,144 to 145 °C,0.81 µg/mL,> 11.1 µg/mL
COc1cccc(-c2cnc(-c3ccccn3)nc2C2CCN(Cc3cc(Cl)ccc3O)CC2)c1 [Compound 23],,165 to 166 °C,7.37 µg/mL,4.4 µg/mL
COc1cccc(-c2cnc(-c3ccncc3)nc2C2CCN(Cc3ccccc3)CC2)c1 [Compound 16],,174 °C,6.92 µg/mL,> 11 µg/mL
